In experiment [1] the target is T1, EP4 Receptors in Chinese Hamster Ovary Cells (Cricetulus griseus, UniProt A0A061ILF4).
T1 construct: Chinese hamster ovary cells (containing EP4 receptors); endogenous in cells; host or cells: Chinese hamster ovary cells
The experiment is described as follows: cAMP production (radioimmunoassay) via EP4 receptors in Chinese hamster ovary cells. As to conditions: 15-60 min at 23° C.; for EC50: read-out: Potency (EC50, nM) at EP4 Receptors in Chinese Hamster Ovary Cells. The format is cell-based. The method, then:
(§1) Immortalized human non-pigmented ciliary epithelial cells (containing EP2 receptors) and Chinese hamster ovary cells (containing EP4 receptors) were stimulated with various prostaglandins for 15-60 min at 23° C. The cAMP produced by receptor activation was determined by a specific radioimmunoassay as previously described (Sharif et. al., Pharmacological analysis of mast cell mediator and neurotransmitter receptors coupled to adenylate cyclase and phospholipase C on immunocytochemically-defined human conjunctival epithelial cells, J. Ocular Pharmacology & Therapeutics, 13:321-336 (1997); Crider et. al., Prostaglandin-stimulated adenylyl cyclase activity via a pharmacologically-defined EP2 receptor in human non-pigmented epithelial cells, J. Ocular Pharmacology & Therapeutics, 14:293-304 (1998); Crider et. al., Use of a semi-automated, robotic radioimmunoassay to measure cAMP generated by activation of DP-, EP2- and IP-prostaglandin receptors in human ocular and other cell-types, Prostaglandins, Leukotrienes & Fatty Acids, 59:77-82 (1998); Milne et. al., Human monocytes and cultured Chinese hamster ovary cells express EP4 receptors positively coupled to adenylate cyclase, Br. J. Pharmacology, 113 (supplement), 8p, (1994)).
In general terms: cAMP levels reflect the balance of adenylyl cyclase and phosphodiesterase activity.

For experiment [2], the target named is T2, EP2 Receptors in Immortalized Human Non-pigmented Ciliary Epithelial Cells (Homo sapiens, UniProt P43116).
T2 construct: Immortalized human non-pigmented ciliary epithelial cells (containing EP2 receptors); endogenous in cells; host or cells: immortalized human non-pigmented ciliary epithelial cells
T2 sequence (P43116 whole entry): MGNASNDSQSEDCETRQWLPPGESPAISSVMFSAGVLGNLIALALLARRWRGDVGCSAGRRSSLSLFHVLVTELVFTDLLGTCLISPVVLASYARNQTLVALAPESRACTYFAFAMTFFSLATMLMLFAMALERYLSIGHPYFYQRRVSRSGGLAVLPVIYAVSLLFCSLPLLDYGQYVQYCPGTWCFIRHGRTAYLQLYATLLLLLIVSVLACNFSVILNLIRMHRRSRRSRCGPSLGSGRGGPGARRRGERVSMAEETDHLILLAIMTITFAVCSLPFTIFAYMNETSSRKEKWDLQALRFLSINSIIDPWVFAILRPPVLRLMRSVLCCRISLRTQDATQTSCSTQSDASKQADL
The experiment is described as follows: cAMP production (radioimmunoassay) via EP2 receptors in immortalized human non-pigmented ciliary epithelial cells. The format is cell-based. Particulars: for EC50: cAMP production, 15-60 min at 23° C., read-out: Potency (EC50, nM) at EP2 Receptors in Immortalized Human Non-pigmented Ciliary Epithelial Cells. Here is the method: as §1

T1 sequence (A0A061ILF4 1-488): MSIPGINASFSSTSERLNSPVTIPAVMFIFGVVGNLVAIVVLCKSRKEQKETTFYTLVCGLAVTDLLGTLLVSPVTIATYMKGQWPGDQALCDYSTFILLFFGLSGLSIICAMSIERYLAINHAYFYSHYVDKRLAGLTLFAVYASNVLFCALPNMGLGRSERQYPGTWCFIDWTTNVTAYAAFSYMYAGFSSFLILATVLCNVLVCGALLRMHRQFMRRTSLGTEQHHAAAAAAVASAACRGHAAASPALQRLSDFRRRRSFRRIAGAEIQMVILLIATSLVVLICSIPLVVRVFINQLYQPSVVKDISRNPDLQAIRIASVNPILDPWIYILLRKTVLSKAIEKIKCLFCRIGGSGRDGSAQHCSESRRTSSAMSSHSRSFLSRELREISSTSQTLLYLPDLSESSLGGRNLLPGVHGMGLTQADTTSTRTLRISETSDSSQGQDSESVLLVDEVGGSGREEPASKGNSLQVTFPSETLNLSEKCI

For `CCCCC(C)(C)[C@H](O)/C=C/[C@H]1CCC(=O)[C@@H]1C/C=C\CCCC(=O)O` [11-deoxy-16,16-dimethyl-PGE2, 11-deoxy-16,16,-dimethyl-PGE2], the EC50 came out at 176 nM in experiment [1] and 739 nM in experiment [2].

On to `CCCCC[C@H](O)/C=C/[C@H]1CCC(=O)[C@@H]1CCCCCCC(=O)O` [11-deoxy-PGE1], for which the “Efficacy at EP4 Receptors in Chinese Hamster Ovary Cells” value in experiment [1] worked out at 86%. Further, the EC50 in experiment [1] was 38 nM; in experiment [2] it was 500 nM.

Consider `CCCCC(C)(C)[C@H](O)/C=C/[C@H]1[C@H](O)CC(=O)[C@@H]1C/C=C\CCCC(=O)O` [16,16-dimethyl-PGE2], for which the EC50 was found to be 31 nM in experiment [1] and 686 nM in experiment [2].

Consider `CCCC1([C@H](O)C/C=C/[C@H]2[C@H](O)CC(=O)[C@@H]2CCCCCCC(=O)OC)CCC1` [Butaprost, reference compound], for which the EC50 in experiment [1] is over 10000 nM; in experiment [2] it was 212 nM. Besides, the “Receptor selectivity EP2 versus EP4” value in experiment [2] (comparison of EC50 at EP2 and EP4 receptors) is reported as “more EP2-selective”.

Usually EC50 stands for the midpoint of the concentration-response curve.

These data come from patent publication US6344477B1, “Prostaglandin e agonists for treatment of dry eye” (Alcon Manufacturing, Ltd., priority 1998, dated 2002).
